pIC50: −log10 of the molar value.
How the values were obtained:
hSTING-CTD = hSTING-CTD (Homo sapiens (Human), UniProt Q86WV6); assay: Human STING protein FP competition concentration response assay; type: binding
Outline: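 Compound, serially diluted 2-fold over 14 concentrations, competes with 2′-Fluo-AHC-c-di-GMP (30 nM) for binding to hSTING-CTD (10 uM) in PBS with 3.35% DMSO at room temperature for 10-20 min. Anisotropy change gives IC50 by sigmoidal four-parameter regression.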

mSTING-CTD = mSTING-CTD (Mus musculus (Mouse), UniProt Q3TBT3); assay: Mouse STING protein FP competition concentration response assay; type: binding
Protocol: A validated STING ligand, such as c-di-GMP, which is labeled with a read-out signal (e.g., a fluorescence signal such as fluorescein), is mixed with STING-CTD (e.g., mouse STING-CTD or human STING-CTD) with or without the presence of a compound of the present application. Changes in the read-out signal are measured (e.g., by fluorescence anisotropy) to determine the binding of the compound to STING-CTD.
Fluorescein labeled c-di-GMP was mixed with mSTING-CTD with or without the presence of a compound of the present application in PBS in black 384-well plates (10 μL per well). The fluorescence anisotropy was determined on a PerkinElmer EnVisions multi-mode plate reader. The plate can be read immediately after mixing the reagents or after a few hours without change of signals.
• 1) 6×his-sumo-mSTING (Supplier: HDB) • 2) 2′-Fluo-AHC-c-di GMP (BIOLOG #F009) • 3) 23-cGAMP (BIOLOG #C161) • 4) DMXAA (InvivoGen #tlrl-dmx) • 5) DMSO (Sigma. #D5879-100 mL) • 6) 10×PBS(HDB #MCP-020) • 7) Assay plate, 384-well black plate, solid black bottom (Greiner #784076) • 8) Compound dilution intermediate plate, 384 LDV plate (Labcyte #LP-0200) • 9) Liquid handler, ECHO550 (Labcyte) • 10) Liquid handler, Bravo (Aglient) • 11) Reader, Envision (PerkinElmer) • 12) Centrifuge (Eppendorf) • 13) Multichannel Pipette (Raining) • 14) 10 ml Reservoir (Corning) • 15) 15 ml centrifuge tube (Corning) • 16) Adhesive Plate seals (BioRad) Compound Preparation • a) Containers of each compound were centrifuged at 1000 rpm for 5 min. • b) Compounds were dissolved in DMSO at 30 mM. • c) Compounds were sufficiently vortexed, and centrifuged at 1000 rpm for 1 min. • d) 16 uL of the compound solution was transferred into a LDV Compound Plate. • e) 2-fold serial dilutions of the compound solution were made with DMSO, and 14 concentrations were made in the 384-well LDV Compound Plate. • f) The LDV plate was spun at 1000 rpm for 60 sec and sealed with foil (stored at −20° C. if not used immediately). • g) 335 nL of each compound from the LDV Compound Plate was transferred to Assay Plate (ECHO550). Probe Preparation • a) 200 uM probe stock (2′-Fluo-AHC-c-diGMP) was diluted by dd2O to 6 uM working concentration. • b) 10-12 uL 6 uM working solution of probe was transferred into the LDV plate. • c) 50 nL per well 6 uM working solution of probe was transferred from the LDV plate to each well of the empty Assay Plate (Greiner 784076) by ECHO550 Buffer mode. • d) Probe final concentration was 30 nM when assay system was 10 uL. • e) The Assay Plate was spun at 1000 rpm for 1 min. Compound Addition • a) After the LDV Compound Plate was prepared, 100 nL compound (ECHO550 DMSO mode) was transferred from the LDV Compound Plate into the Assay Plate (Greiner 784076) containing 50 nL probe in each well according to the Assay Plate layout. • b) DMSO final concentration was 1% when assay system was 10 uL. • c) The Assay Plate was spun at 1000 rpm for 1 min. Protein Addition • a) Aliquot of 6×his-sumo-mSTING protein was thawed on ice, briefly to generate uniform solution. • b) 66 uM stock protein was diluted in 1×PBS assay buffer to generate 8 uM final solutions. • c) For test compound and ZPE wells, 10 μL per well of 8 uM protein solutions was added into the Assay Plate containing both the probe and test compounds or DMSO using multichannel pipette. • d) For HPE wells, 10 µL/well of 1×PBS assay buffer instead of protein was added into the Assay Plate containing both the probe and DMSO using multichannel pipette. • e) The Assay Plate was spun at 1000 rpm for 1 min. • f) The Assay Plate was incubated at r.t. for 10-20 min.
The EnVision plate reader was used to record the FA value of each well immediately after mixing the reagents or after a few hours without change of signals.
The raw data and calculated data (Fluorescence anisotropy (FA)) was exported from the EnVision reader. […]

mSTING = mSTING (Mus musculus, UniProt Q3TBT3); assay: Radiometric filtration binding competition assay, mSTING
hSTING-WT = hSTING-WT (Homo sapiens (Human), UniProt Q86WV6, H232R); assay: Radiometric filtration binding competition assay, hSTING-WT
mSTING-R232 = mSTING-R232 (Mus musculus, UniProt Q3TBT3); assay: STING differential scanning fluorimetry (DSF) assay, mouse STING; conditions: net shift in melting temperature
hSTING-R232 = hSTING-R232 (Homo sapiens (Human), UniProt Q86WV6, H232R); assay: STING differential scanning fluorimetry (DSF) assay, WT human STING; conditions: WT (R232) human STING aa140-379, net shift in melting temperature
hSTING-HAQ [1] = biological target: T1, hSTING-HAQ (Homo sapiens (Human), UniProt Q86WV6, G230A/H232R/R293Q); assay: STING differential scanning fluorimetry (DSF) assay, HAQ human STING; conditions: HAQ human STING aa140-379, net shift in melting temperature
Protocol: A STING DSF assay was performed to determine protein thermostability shift in response to small molecule ligand binding. A STING thermostability shift assay based on differential scanning fluorimetry was used to measure (1) the net shift in melting temperature (ΔTm)between the apo and ligand-bound states of the STING protein and (2) the concentration of the thermal denaturation transition (EC50) as a surrogate measure of binding affinity (K). […] Protein in assay buffer was transferred to a 384 well plate and incubated with the hydrophobic fluorescent dye SYBR Orange. A temperature ramp was applied to the plate and the resulting dye fluorescence was plotted as a function of temperature. The first derivative of this function (dF/dT) was then used to extrapolate the melting temperature of the protein at various concentrations of compound and determine the thermal denaturation profile of a protein/compound complex.
• 1. Protein construct (affinity tag removal vs SUMO-fusion construct) • 2. Protein concentration • 3. Dye concentration • 4. Buffer • 5. Thermal ramp velocity • 6. DMSO tolerance • 7. Compound titration parameters • 8. […] 5 μM purified Target STING Protein • 3. 8 μM Sypro Orange Dye • 4. Buffer: 100 mM NaCl, 30 mM HEPES, pH 7.5 • 5. Thermal Ramp: 0.5° C./min • 6. <1% DMSO • 7. 11 point, 2 fold dilution, duplicate, 300 μM high concentrations • 8.

STING protein = STING protein (Homo sapiens (Human), UniProt Q86WV6, H232R); assay: Cell based reporter assay of IRF activation (IRF-luciferase), THP1-dual-KI R232; conditions: read-out: THP1-dual-KI R232_IRF(Luciferase)_Activity Maximum measured (%)
hSTING-HAQ [2] = biological target: T1, hSTING-HAQ; assay: Radiometric filtration binding competition assay, hSTING-HAQ
Protocol: A radiometric filtration binding competition assay was performed to quantify the binding affinity of compounds of the present application for the human or mouse STING protein, or associated HAQ human isoform. […] The resulting dose response was fit by non-linear regression to determine an IC50 value, from which a Ki value for each compound was extrapolated.
The resulting complexes were then filtered, dried, and scintillation fluid was added and the remaining radio signal was measured to determine the degree of compound ligand inhibition. This assay format was optimized for both the WT and HAQ isoforms of the human protein and the mouse orthologue protein.
Probe Concentration: Minimum concentration that achieved max assay window • g. Assay Format: Scintillation Proximity Bead or Filtration Binding Plate • h. […] Assay incubation times for successive incubation steps
WT-hSWAT: WT_FBA_HIS-SUMO-hSWAT IC50 (μM) (“WT”=Wild-type); HAQ-hSWAT: HAQ_FBA_HIS-SUMO-hSWAT IC50 (μM) (“HAQ”=human HAQ allele of STING protein); and WT-mSWAT: MOUSE_FBA_HIS-SUMO-mnSWAT IC50 (μM) which is the mouse isoform of STING protein.

hSTING-CTD, sequence (Q86WV6 135-379): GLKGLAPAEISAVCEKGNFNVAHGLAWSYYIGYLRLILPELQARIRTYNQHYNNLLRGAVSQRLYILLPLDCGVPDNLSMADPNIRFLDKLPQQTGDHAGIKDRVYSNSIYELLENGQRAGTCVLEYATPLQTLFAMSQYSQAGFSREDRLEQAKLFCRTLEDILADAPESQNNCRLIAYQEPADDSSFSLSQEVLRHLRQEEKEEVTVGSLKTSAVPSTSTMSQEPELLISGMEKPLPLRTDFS
hSTING-WT, sequence (Q86WV6 140-379 H232R): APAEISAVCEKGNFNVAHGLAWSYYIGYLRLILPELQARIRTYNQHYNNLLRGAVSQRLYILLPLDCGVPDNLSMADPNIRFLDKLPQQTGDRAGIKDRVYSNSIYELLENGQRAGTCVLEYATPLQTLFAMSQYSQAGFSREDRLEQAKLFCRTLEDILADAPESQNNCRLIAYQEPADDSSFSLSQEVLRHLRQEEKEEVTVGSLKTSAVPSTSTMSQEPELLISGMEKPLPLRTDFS
hSTING-R232, sequence (Q86WV6 140-379 H232R): as above
STING protein, sequence (Q86WV6 whole entry H232R): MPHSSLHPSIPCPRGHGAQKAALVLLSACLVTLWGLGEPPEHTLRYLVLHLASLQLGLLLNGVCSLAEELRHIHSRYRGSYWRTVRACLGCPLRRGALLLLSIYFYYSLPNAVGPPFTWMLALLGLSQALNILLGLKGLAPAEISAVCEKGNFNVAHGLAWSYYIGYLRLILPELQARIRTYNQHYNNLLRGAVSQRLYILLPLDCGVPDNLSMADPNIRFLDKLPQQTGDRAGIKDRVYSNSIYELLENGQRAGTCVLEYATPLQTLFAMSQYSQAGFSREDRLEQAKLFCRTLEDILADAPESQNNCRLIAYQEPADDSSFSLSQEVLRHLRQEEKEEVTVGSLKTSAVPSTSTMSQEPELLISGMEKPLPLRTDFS
T1 sequence (Q86WV6 140-379 G230A/H232R/R293Q): as the sequence (Q86WV6 140-379 H232R) above, with G91A, R154Q counted along it
mSTING-CTD, sequence (Q3TBT3 134-378): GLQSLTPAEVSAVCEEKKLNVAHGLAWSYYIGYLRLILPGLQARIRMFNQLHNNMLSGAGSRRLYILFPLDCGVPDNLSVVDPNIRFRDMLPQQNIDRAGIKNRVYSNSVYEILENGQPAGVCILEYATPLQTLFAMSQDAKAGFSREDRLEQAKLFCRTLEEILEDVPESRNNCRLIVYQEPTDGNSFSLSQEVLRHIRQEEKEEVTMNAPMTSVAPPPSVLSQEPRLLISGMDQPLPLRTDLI

| SMILES | pIC50 (hSTING-CTD) | pIC50 (mSTING-CTD) | pIC50 (mSTING) | pIC50 (hSTING-WT) | MOUSE DSF_6xHIS-SUMO Tm Shift (° C.) (mSTING-R232) | WT_DSF_hSWAT Tm Shift (° C.) (hSTING-R232) | HAQ_DSF_hSWAT Tm Shift (° C.) (hSTING-HAQ [1]) | Emax (STING protein) [%] | pIC50 (hSTING-HAQ [2]) |
| --- | --- | --- | --- | --- | --- | --- | --- | --- | --- |
| O=C(O)Cn1c2ccccc2c(=O)c2ccc(Cl)c(Cl)c21 [Compound 13] | 3.30 to 4.00 | 4.30 to 5.00 | < 3.52 | < 3.52 | C (“C” = 5-15° C.) | B (“B” = 0-2° C.) |  |  |  |
| O=C(O)Cn1c2cc(N3CCOCC3)ccc2c(=O)c2ccc(Cl)c(Cl)c21 [Compound 60] | > 4.00 | 4.30 to 5.00 |  |  |  |  |  |  |  |
| O=C(O)Cn1c2cc(N3CCCCC3)ccc2c(=O)c2ccc(Cl)c(Cl)c21 [Compound 61] | > 4.00 | 4.30 to 5.00 |  |  |  |  |  |  |  |
| CC1(C)CCC=C(c2ccc3c(c2)c(=O)c2ccc(Cl)c(Cl)c2n3CC(=O)O)C1 [Compound 67] | 3.00 to 3.30 | < 4.00 |  |  |  |  |  |  |  |
| Cc1cccc(-c2ccc3c(c2)c(=O)c2ccc(Cl)c(Cl)c2n3CC(=O)O)c1 [Compound 68] | > 4.00 | 4.30 to 5.00 |  |  |  |  |  |  |  |
| CN(C)c1ccc2c(=O)c3ccc(Cl)c(Cl)c3n(CC(=O)O)c2c1 [Compound 71] | 3.30 to 4.00 | 4.30 to 5.00 |  |  |  |  |  |  |  |
| Cc1ccc2c(=O)c3cc(CCc4ccccc4C)ccc3n(CC(=O)O)c2c1 [Compound 75] | 3.30 to 4.00 | < 4.00 |  |  |  |  |  |  |  |
| CC(C)c1ccc2c(=O)c3ccc(Cl)c(Cl)c3n(CC(=O)O)c2c1 [Compound 81] | > 4.00 | 4.30 to 5.00 |  |  |  |  |  |  |  |
| CCc1ccc2c(=O)c3ccc(Cl)c(Cl)c3n(CC(=O)O)c2c1 [Compound 82] | 3.30 to 4.00 | 4.00 to 4.30 |  |  |  |  |  |  |  |
| Cc1cc2c(=O)c3ccc(Cl)c(Cl)c3n(CC(=O)O)c2cc1C [Compound 94] | 3.30 to 4.00 | 4.00 to 4.30 |  |  |  |  |  |  |  |
| Cc1c(Cl)ccc2c(=O)c3ccccc3n(CC(=O)O)c12 [Compound 98] | 3.00 to 3.30 | 4.30 to 5.00 |  |  |  |  |  |  |  |
| Cc1ccc2c(=O)c3ccccc3n(CC(=O)O)c2c1C [Compound 99] | 3.00 to 3.30 | 4.00 to 4.30 |  |  |  |  |  |  |  |
| CC1(C)CCC(c2ccc3c(=O)c4ccc(Cl)c(Cl)c4n(CC(=O)O)c3c2)CC1 [Compound 160] |  |  |  | 4.00 to 4.70 | D (“D” > 15° C.) | B (“B” = 0-2° C.) | B (“B” = 0-2° C.) | 5 to 25 |  |
| Cc1ccc(-c2ccc3c(=O)c4ccc(Cl)c(Cl)c4n(CC(=O)O)c3c2)cc1Cl [Compound 164] |  |  |  | 4.00 to 4.70 | D (“D” > 15° C.) | B (“B” = 0-2° C.) | B (“B” = 0-2° C.) |  |  |
| O=C(O)Cn1c2cc(-c3ccccc3)ccc2c(=O)c2ccc(Cl)c(Br)c21 [Compound 177] |  |  | 4.00 to 4.70 | 4.00 to 4.70 |  | C (“C” = 2-7° C,) |  | < 5 | 3.52 to 4.00 |
| O=C(O)Cn1c2cc(Nc3ccccc3)ccc2c(=O)c2ccc(Cl)c(Cl)c21 [Compound 181] |  |  | > 4.70 | > 4.70 | D (“D” > 15° C.) | D (“D” > 7° C.) |  | > 50 | 4.00 to 4.70 |
| CC(C)c1ccc2c(=O)c3ccc(Cl)c(C(F)(F)F)c3n(CC(=O)O)c2c1 [Compound 192] |  |  | 3.52 to 4.00 | 4.00 to 4.70 | B (“B” = 0-5° C.) | A (“A” < 0° C.) |  | < 5 | 4.00 to 4.70 |
| C#Cc1c(Cl)ccc2c(=O)c3ccccc3n(CC(=O)O)c12 [Compound 197] |  |  |  | < 3.52 |  | C (“C” = 2-7° C,) |  | < 5 | < 3.52 |
| CSc1c(Cl)ccc2c(=O)c3ccccc3n(CC(=O)O)c12 [Compound 212] |  |  | 3.52 to 4.00 | 3.52 to 4.00 |  | C (“C” = 2-7° C,) |  |  | < 3.52 |
| O=C(O)Cn1c2cc(Nc3ncccn3)ccc2c(=O)c2ccc(Cl)c(Cl)c21 [Compound 216] |  |  | > 4.70 | 4.00 to 4.70 | D (“D” > 15° C.) | C (“C” = 2-7° C,) |  | > 50 | 4.00 to 4.70 |
| COc1c(Cl)ccc2c(=O)c3ccc(C4=CCCCC4)cc3n(CC(=O)O)c12 [Compound 219] |  |  | > 4.70 | > 4.70 |  | D (“D” > 7° C.) |  |  | 4.00 to 4.70 |
| CC(C)c1ccc2c(=O)c3ccc(Cl)c(Br)c3n(CC(=O)NS(C)(=O)=O)c2c1 [Compound 350] |  |  |  | 3.52 to 4.00 |  | C (“C” = 2-7° C,) | C (“C” = 2-7° C,) | < 5 |  |
| Cc1ccc(S(=O)(=O)NC(=O)Cn2c3cc(C(C)C)ccc3c(=O)c3ccc(Cl)c(Cl)c32)cc1 [Compound 351] |  |  |  | 4.00 to 4.70 |  | A (“A” < 0° C.) | A (“A” < 0° C.) | < 5 |  |

Source: US11414387B2, “Oxoacridinyl acetic acid derivatives and methods of use” (Stingthera, Inc., priority 2017, dated 2022)
